Counter-ions that a name gives are not always drawn.

In general, melting point refers to the temperature of the solid-liquid transition.

In the case of `CC(C)(N)c1ccc(-c2ccc3[nH]ncc3c2OC2CC2)nc1` (as salt: hydrochloride) [Compound 5-70, 5-[5-(1-Amino-1-methylethyl)pyridin-2-yl]-4-cyclo-propyloxy-1H-indazole trihydrochloride], the melting point was 203 to 205 °C (dec.).

`CNc1c(-c2ccc(C(C)(C)N)cc2)ccc2[nH]ncc12` (as salt: hydrochloride) [Compound 5-7, 5-[4-(1-Amino-1-methylethyl)phenyl]-4-methylamino-1H-indazole trihydrochloride]: the melting point is 202 to 206 °C (dec.). Then `CC(C)(N)c1ccc(-c2ccc3[nH]ncc3c2N2CCCC2)cc1` (as salt: hydrochloride) [Compound 5-42, 5-[4-(1-Amino-1-methylethyl)phenyl]-4-(pyrrolidin-1-yl)-1H-indazole trihydrochloride], with 218 to 224 °C (dec.). As for `CC(C)(N)c1ccc(-c2ccc3[nH]ncc3c2N2CCCCC2)cc1` (as salt: hydrochloride) [Compound 5-41, 5-[4-(1-Amino-1-methylethyl)phenyl]-4-(piperidin-1-yl)-1H-indazole trihydrochloride], the melting point was 205 to 208 °C (dec.). With `CC(C)(N)c1ccc(-c2ccc3cn[nH]c3c2)cc1` (as salt: hydrochloride) [Compound 5-37, 6-[4-(1-Amino-1-methylethyl)phenyl]-1H-indazole dihydrochloride], the melting point was in the range of 265 to 269 °C. As to `CCC(N)(CC)c1ccc(-c2ccc3[nH]ncc3c2OC)nc1` (as salt: hydrochloride) [Compound 5-51, 5-[5-(1-Amino-1-ethylpropyl)pyridin-2-yl]-4-methoxy-1H-indazole trihydrochloride], the melting point was 204 to 206 °C (dec.). As for `CC(C)(N)c1ccc(-c2ccc3[nH]ncc3c2OC(F)F)cc1` (as salt: hydrochloride) [Compound 5-53, 5-[4-(1-Amino-1-methylethyl)phenyl]-4-difluoro-methoxy-1H-indazole dihydrochloride], the figure is 227 to 230 °C (dec.). As for `CN(C)c1c(-c2ccc(C3(N)CCCC3)cc2)ccc2[nH]ncc12` (as salt: hydrochloride) [Compound 5-24, 5-[4-(1-Aminocyclopentyl)phenyl]-4-dimethylamino-1H-indazole trihydrochloride], the melting point was 175 to 178 °C (dec.).

`CCCCOc1c(-c2ccc(C(C)(C)N)cc2)ccc2[nH]ncc12` (as salt: hydrochloride) [Compound 5-55, 5-[4-(1-Amino-1-methylethyl)phenyl]-4-n-butoxy-1H-indazole dihydrochloride]: the melting point is 227 to 229 °C (dec.).

For the molecule `CC(C)(N)c1ccc(-c2ccc3[nH]ncc3c2-c2cn[nH]c2)cc1` (as salt: hydrochloride) [Compound 5-64, 5-[4-(1-Amino-1-methylethyl)phenyl]-4-(pyrazol-4-yl)-1H-indazole trihydrochloride], the melting point is 259 to 267 °C (dec.). For `CC(C)(N)c1ccc(-c2ccc3[nH]ncc3c2[N+](=O)[O-])cc1` (as salt: hydrochloride) [Compound 5-4, 5-[4-(1-Amino-1-methylethyl)phenyl]-4-nitro-1H-indazole monohydrochloride], the melting point is 255 to 261 °C (dec.). As for `CCC(N)(CC)c1ccc(-c2ccc3[nH]ncc3c2OC(F)F)cc1` (as salt: hydrochloride) [Compound 5-72, 5-[4-(1-Amino-1-ethylpropyl)phenyl]-4-difluoro-methoxy-1H-indazole dihydrochloride], the figure is 234 to 237 °C. As for `C=Cc1c(-c2ccc(C(C)(C)N)cn2)ccc2[nH]ncc12` (as salt: hydrochloride) [Compound 5-30, 5-[5-(1-Amino-1-methylethyl)pyridin-2-yl]-4-vinyl-1H-indazole trihydrochloride], the figure is 162 to 166 °C (dec.). Then `CC(=O)n1ncc2cc(-c3ccc(C(C)(C)N)cc3)ccc21` (as salt: hydrochloride) [Compound 5-2, 1-Acetyl-5-[4-(1-amino-1-methylethyl)phenyl]-1H-indazole dihydrochloride], with 247 to 250 °C; and `CC(C)(N)c1ccc(-c2ccc3[nH]ncc3c2)nc1` (as salt: hydrochloride) [Compound 5-3, 5-[5-(1-Amino-1-methylethyl)pyridin-2-yl]-1H-indazole trihydrochloride], with 271 to 273 °C (dec.); and `CC(C)Oc1c(-c2ccc(C(C)(C)N)cc2)ccc2[nH]ncc12` (as salt: hydrochloride) [Compound 5-40, 5-[4-(1-Amino-1-methylethyl)phenyl]-4-isopropoxy-1H-indazole dihydrochloride], with 242 to 246 °C (dec.).

For the molecule `CC(C)(N)c1ccc(-c2ccc3[nH]ncc3c2-c2ccccn2)cc1` (as salt: hydrochloride) [Compound 5-63, 5-[4-(1-Amino-1-methylethyl)phenyl]-4-(pyridin-2-yl)-1H-indazole trihydrochloride], the melting point was 210 to 214 °C (dec.). Turning to `CC(C)(N)c1ccc(-c2ccc3[nH]nc(C(=O)O)c3c2)cc1` (as salt: hydrochloride) [Compound 5-9, 5-[4-(1-Amino-1-methylethyl)phenyl]-3-carboxy-1H-indazole monohydrochloride], the melting point was 274 to 280 °C (dec.). As for `CC(C)(N)c1ccc(-c2ccc3[nH]ncc3c2OC(F)F)nc1` (as salt: hydrochloride) [Compound 5-59, 5-[5-(1-Amino-1-methylethyl)pyridin-2-yl]-4-difluoromethoxy-1H-indazole trihydrochloride], the figure is 170 to 173 °C. Then `CCCOc1c(-c2ccc(C(C)(C)N)cn2)ccc2[nH]ncc12` (as salt: hydrochloride) [Compound 5-58, 5-[5-(1-Amino-1-methylethyl)pyridin-2-yl]-4-n-propoxy-1H-indazole trihydrochloride], with 194 to 198 °C (dec.). Then `CN(C)c1c(-c2ccc(CN)cc2)ccc2[nH]ncc12` (as salt: hydrochloride) [Compound 5-23, 5-[4-(Aminomethyl)phenyl]-4-dimethylamino-1H-indazole trihydrochloride], with 188 to 192 °C (dec.). With `C=CCOc1c(-c2ccc(C(C)(C)N)cc2)ccc2[nH]ncc12` (as salt: hydrochloride) [Compound 5-57, 4-Allyloxy-5-[4-(1-amino-1-methylethyl)phenyl]-1H-indazole dihydrochloride], the melting point is 205 to 207 °C (dec.). Then `CC(C)(N)c1ccc(-c2ccc3[nH]ncc3c2-n2cccc2)cc1` (as salt: hydrochloride) [Compound 5-39, 5-[4-(1-Amino-1-methylethyl)phenyl]-4-(pyrrol-1-yl)-1H-indazole dihydrochloride], with 244 to 247 °C (dec.); and `CC(C)(N)c1ccc(-c2ccc3[nH]ncc3c2-c2ccncc2)cc1` (as salt: hydrochloride) [Compound 5-61, 5-[4-(1-Amino-1-methylethyl)phenyl]-4-(pyridin-4-yl)-1H-indazole trihydrochloride], with 266 to 269 °C (dec.).

The molecule `CC(C)(N)c1cnc(-c2ccc3[nH]ncc3c2)c(Cl)c1` (as salt: hydrochloride) [Compound 5-27, 5-[5-(1-Amino-1-methylethyl)-3-chloropyridin-2-yl]-1H-indazole trihydrochloride] registered a melting point of 179 to 182 °C.

`CC(=O)n1ncc2ccc(-c3ccc(C(C)(C)N)cc3)cc21` (as salt: hydrochloride) [Compound 5-38, 1-Acetyl-6-[4-(1-amino-1-methylethyl)phenyl]-1H-indazole dihydrochloride] gave a melting point of 225 to 230 °C.

Take `CC(C)(N)c1ccc(-c2ccc3[nH]ncc3c2N2CCOCC2)cc1` (as salt: hydrochloride) [Compound 5-43, 5-[4-(1-Amino-1-methylethyl)phenyl]-4-(morpholin-4-yl)-1H-indazole trihydrochloride]: the melting point was 268 to 272 °C (dec.).

In the case of `CC(C)(N)c1ccc(-c2ccc3[nH]nc(N)c3c2)cc1` (as salt: hydrochloride) [Compound 5-11, 3-Amino-5-[4-(1-amino-1-methylethyl)phenyl]-1H-indazole trihydrochloride], the melting point was 220 to 222 °C (dec.). As for `CCc1c(-c2ccc(C(C)(C)N)cn2)ccc2[nH]ncc12` (as salt: hydrochloride) [Compound 5-28, 5-[5-(1-Amino-1-methylethyl)pyridin-2-yl]-4-ethyl-1H-indazole trihydrochloride], the melting point is 247 to 255 °C (dec.). Then `CC(C)(N)c1ccc(-c2ccc3[nH]ncc3c2O)nc1` (as salt: hydrochloride) [Compound 5-69, 5-[5-(1-Amino-1-methylethyl)pyridin-2-yl]-4-hydroxy-1H-indazole trihydrochloride], with 255 to 260 °C (dec.); and `CC(C)(C)OC(=O)NC(C)(C)c1ccc(-c2ccc3nn(C4CCCCO4)cc3c2-c2cc[nH]n2)cc1` (stereo not shown) [Compound 30, 5-[4-(1-tert-butoxycarbonylamino-1-methylethyl)phenyl]-4-(pyrazol-3-yl)-2-(tetrahydropyran-2-yl)-2H-indazole], with 99 to 105 °C. Take `COc1c(-c2ccc(C(C)(C)N)cn2)ccc2[nH]ncc12` (as salt: hydrochloride) [Compound 5-45, 5-[5-(1-Amino-1-methylethyl)pyridin-2-yl]-4-methoxy-1H-indazole trihydrochloride]: the melting point was 195 to 201 °C (dec.). On to `CC(C)(N)c1ccc(-c2ccc3[nH]ncc3c2NCc2ccccc2)cc1` (as salt: hydrochloride) [Compound 5-6, 5-[4-(1-Amino-1-methylethyl)phenyl]-4-benzylamino-1H-indazole dihydrochloride], for which the melting point is 185 to 192 °C (dec.). As to `CC(C)(N)c1ccc(-c2ccc3[nH]ncc3c2O)cc1` (as salt: hydrochloride) [Compound 5-48, 5-[4-(1-Amino-1-methylethyl)phenyl]-4-hydroxy-1H-indazole dihydrochloride], the melting point was 194 to 198 °C (dec.).

(Values after patent US8232308B2, “Methods for treating a disease in which Rho kinase is involved” (UBE Industries, Ltd., priority 2003, dated 2012).)
